Laboratory results taken from article PMC10329973 (Clinical pharmacology in drug development, 2023).
pIC50: −log10 of the molar value. Where “and” joins values, the source holds several entries; their conditions need not be identical. Identical values can stand only once.

How the values were obtained:
over 40 CNS targets = settings: cited from earlier work
Plasma protein binding = type: in vitro ADME, mice, rats, dogs, and humans; settings: mouse, rat, dog, human
healthy adult volunteers = assay: Multiple ascending dose study NP10679-102, safety and tolerability; type: in vivo, human; settings: MAD; for Subjects with at least one TEAE / TEAE, system organ class: Blood and lymphatic system disorders / TEAE, system organ class: Eye disorders / TEAE, system organ class: Gastrointestinal disorders / TEAE, system organ class: General disorders and administration site conditions / TEAE, system organ class: Injury, poisoning and procedural complications / TEAE, system organ class: Investigations / TEAE, system organ class: Musculoskeletal and connective tissue disorders / TEAE, system organ class: Nervous system disorders / TEAE, system organ class: Skin and subcutaneous tissue disorders / TEAE, system organ class: Vascular disorders / TEAE: Anaemia / TEAE: Asthenia / TEAE: Back pain / TEAE: Blood pressure diastolic decreased / TEAE: Contusion / TEAE: Dizziness / TEAE: Dysgeusia / TEAE: Erythema / TEAE: Fatigue / TEAE: Head injury / TEAE: Headache / TEAE: Nausea / TEAE: Pain / TEAE: Peripheral swelling / TEAE: Phlebitis / TEAE: Somnolence / TEAE: Syncope / TEAE: Vision blurred: N = 6
hERG channel = settings: read-out: IC50, hERG channel; cited from earlier work
rats and dogs = assay: Repeat-dose toxicity studies of up to 14 days; type: in vivo; settings: repeat-dose toxicity studies up to 14 days, dose-limiting effect in both species
[1] = test system: murine MCAO model of ischemic brain injury; settings: cited from earlier work
CYP3A = settings: ref unpublished data and Ref 35; cited from earlier work
[2] = mouse, minimum effective dose 2 mg/kg IP; cited from earlier work

Structure (SMILES): O=C1CCc2cc(OC[C@H](O)CN3CCN(c4ccc(C(F)(F)F)cc4)CC3)ccc2N1 [NP10679, (R)-6-(2-Hydroxy-3-(4-(4-(trifluoromethyl)phenyl)piperazin-1-yl)propoxy)-3,4-dihydroquinolin-2(1H)-one]
- activity at over 40 CNS targets (over 40 CNS targets): lacks demonstrable activity
- fraction unbound (Plasma protein binding): 0.01 to 0.026
- dissociative symptoms or cognitive impairment (CADSS, DSST) (healthy adult volunteers): no evidence
- serious adverse events (SAEs) (healthy adult volunteers): No serious adverse events
- Subjects with at least one TEAE (healthy adult volunteers; 25 mg IV once daily x 5 days): 5 (83.3%) n (%)
- TEAE, system organ class: Blood and lymphatic system disorders (healthy adult volunteers; 25 mg IV once daily x 5 days): 2 (33.3%) n (%)
- TEAE, system organ class: Eye disorders (healthy adult volunteers; 25 mg IV once daily x 5 days): 0 n (%)
- TEAE, system organ class: Gastrointestinal disorders (healthy adult volunteers; 25 mg IV once daily x 5 days): 0 n (%)
- TEAE, system organ class: General disorders and administration site conditions (healthy adult volunteers; 25 mg IV once daily x 5 days): 1 (16.7%) n (%)
- TEAE, system organ class: Injury, poisoning and procedural complications (healthy adult volunteers; 25 mg IV once daily x 5 days): 2 (33.3%) n (%)
- TEAE, system organ class: Investigations (healthy adult volunteers; 25 mg IV once daily x 5 days): 1 (16.7%) n (%)
- TEAE, system organ class: Musculoskeletal and connective tissue disorders (healthy adult volunteers; 25 mg IV once daily x 5 days): 0 n (%)
- TEAE, system organ class: Nervous system disorders (healthy adult volunteers; 25 mg IV once daily x 5 days): 3 (50.0%) n (%)
- TEAE, system organ class: Skin and subcutaneous tissue disorders (healthy adult volunteers; 25 mg IV once daily x 5 days): 0 n (%)
- TEAE, system organ class: Vascular disorders (healthy adult volunteers; 25 mg IV once daily x 5 days): 0 n (%)
- TEAE: Anaemia (healthy adult volunteers; 25 mg IV once daily x 5 days): 2 (33.3%) n (%)
- TEAE: Asthenia (healthy adult volunteers; 25 mg IV once daily x 5 days): 0 n (%)
- TEAE: Back pain (healthy adult volunteers; 25 mg IV once daily x 5 days): 0 n (%)
- TEAE: Blood pressure diastolic decreased (healthy adult volunteers; 25 mg IV once daily x 5 days): 1 (16.7%) n (%)
- TEAE: Contusion (healthy adult volunteers; 25 mg IV once daily x 5 days): 2 (33.3%) n (%)
- TEAE: Dizziness (healthy adult volunteers; 25 mg IV once daily x 5 days): 0 n (%)
- TEAE: Dysgeusia (healthy adult volunteers; 25 mg IV once daily x 5 days): 1 (16.7%) n (%)
- TEAE: Erythema (healthy adult volunteers; 25 mg IV once daily x 5 days): 0 n (%)
- TEAE: Fatigue (healthy adult volunteers; 25 mg IV once daily x 5 days): 1 (16.7%) n (%)
- TEAE: Head injury (healthy adult volunteers; 25 mg IV once daily x 5 days): 0 n (%)
- TEAE: Headache (healthy adult volunteers; 25 mg IV once daily x 5 days): 2 (33.3%) n (%)
- TEAE: Nausea (healthy adult volunteers; 25 mg IV once daily x 5 days): 0 n (%)
- TEAE: Pain (healthy adult volunteers; 25 mg IV once daily x 5 days): 0 n (%)
- TEAE: Peripheral swelling (healthy adult volunteers; 25 mg IV once daily x 5 days): 0 n (%)
- TEAE: Phlebitis (healthy adult volunteers; 25 mg IV once daily x 5 days): 0 n (%)
- TEAE: Somnolence (healthy adult volunteers; 25 mg IV once daily x 5 days): 0 n (%)
- TEAE: Syncope (healthy adult volunteers; 25 mg IV once daily x 5 days): 0 n (%)
- TEAE: Vision blurred (healthy adult volunteers; 25 mg IV once daily x 5 days): 0 n (%)
- Subjects with at least one TEAE (healthy adult volunteers; 50 mg IV once daily x 5 days): 3 (50.0%) n (%)
- TEAE, system organ class: Blood and lymphatic system disorders (healthy adult volunteers; 50 mg IV once daily x 5 days): 0 n (%)
- TEAE, system organ class: Eye disorders (healthy adult volunteers; 50 mg IV once daily x 5 days): 0 n (%)
- TEAE, system organ class: Gastrointestinal disorders (healthy adult volunteers; 50 mg IV once daily x 5 days): 0 n (%)
- TEAE, system organ class: General disorders and administration site conditions (healthy adult volunteers; 50 mg IV once daily x 5 days): 2 (33.3%) n (%)
- TEAE, system organ class: Injury, poisoning and procedural complications (healthy adult volunteers; 50 mg IV once daily x 5 days): 1 (16.7%) n (%)
- TEAE, system organ class: Investigations (healthy adult volunteers; 50 mg IV once daily x 5 days): 0 n (%)
- TEAE, system organ class: Musculoskeletal and connective tissue disorders (healthy adult volunteers; 50 mg IV once daily x 5 days): 0 n (%)
- TEAE, system organ class: Nervous system disorders (healthy adult volunteers; 50 mg IV once daily x 5 days): 3 (50.0%) n (%)
- TEAE, system organ class: Skin and subcutaneous tissue disorders (healthy adult volunteers; 50 mg IV once daily x 5 days): 1 (16.7%) n (%)
- TEAE, system organ class: Vascular disorders (healthy adult volunteers; 50 mg IV once daily x 5 days): 0 n (%)
- TEAE: Anaemia (healthy adult volunteers; 50 mg IV once daily x 5 days): 0 n (%)
- TEAE: Asthenia (healthy adult volunteers; 50 mg IV once daily x 5 days): 0 n (%)
- TEAE: Back pain (healthy adult volunteers; 50 mg IV once daily x 5 days): 0 n (%)
- TEAE: Blood pressure diastolic decreased (healthy adult volunteers; 50 mg IV once daily x 5 days): 0 n (%)
- TEAE: Contusion (healthy adult volunteers; 50 mg IV once daily x 5 days): 1 (16.7%) n (%)
- TEAE: Dizziness (healthy adult volunteers; 50 mg IV once daily x 5 days): 0 n (%)
- TEAE: Dysgeusia (healthy adult volunteers; 50 mg IV once daily x 5 days): 0 n (%)
- TEAE: Erythema (healthy adult volunteers; 50 mg IV once daily x 5 days): 1 (16.7%) n (%)
- TEAE: Fatigue (healthy adult volunteers; 50 mg IV once daily x 5 days): 1 (16.7%) n (%)
- TEAE: Head injury (healthy adult volunteers; 50 mg IV once daily x 5 days): 0 n (%)
- TEAE: Headache (healthy adult volunteers; 50 mg IV once daily x 5 days): 0 n (%)
- TEAE: Nausea (healthy adult volunteers; 50 mg IV once daily x 5 days): 0 n (%)
- TEAE: Pain (healthy adult volunteers; 50 mg IV once daily x 5 days): 1 (16.7%) n (%)
- TEAE: Peripheral swelling (healthy adult volunteers; 50 mg IV once daily x 5 days): 1 (16.7%) n (%)
- TEAE: Phlebitis (healthy adult volunteers; 50 mg IV once daily x 5 days): 0 n (%)
- TEAE: Somnolence (healthy adult volunteers; 50 mg IV once daily x 5 days): 3 n (%) and 3 (50.0%) n (%)
- TEAE: Syncope (healthy adult volunteers; 50 mg IV once daily x 5 days): 0 n (%)
- TEAE: Vision blurred (healthy adult volunteers; 50 mg IV once daily x 5 days): 0 n (%)
- Subjects with at least one TEAE (healthy adult volunteers; 100 mg IV once daily x 5 days): 6 (100%) n (%)
- TEAE, system organ class: Blood and lymphatic system disorders (healthy adult volunteers; 100 mg IV once daily x 5 days): 1 (16.7%) n (%)
- TEAE, system organ class: Eye disorders (healthy adult volunteers; 100 mg IV once daily x 5 days): 0 n (%)
- TEAE, system organ class: Gastrointestinal disorders (healthy adult volunteers; 100 mg IV once daily x 5 days): 1 (16.7%) n (%)
- TEAE, system organ class: General disorders and administration site conditions (healthy adult volunteers; 100 mg IV once daily x 5 days): 1 (16.7%) n (%)
- TEAE, system organ class: Injury, poisoning and procedural complications (healthy adult volunteers; 100 mg IV once daily x 5 days): 1 (16.7%) n (%)
- TEAE, system organ class: Investigations (healthy adult volunteers; 100 mg IV once daily x 5 days): 0 n (%)
- TEAE, system organ class: Musculoskeletal and connective tissue disorders (healthy adult volunteers; 100 mg IV once daily x 5 days): 0 n (%)
- TEAE, system organ class: Nervous system disorders (healthy adult volunteers; 100 mg IV once daily x 5 days): 4 (66.7%) n (%)
- TEAE, system organ class: Skin and subcutaneous tissue disorders (healthy adult volunteers; 100 mg IV once daily x 5 days): 0 n (%)
- TEAE, system organ class: Vascular disorders (healthy adult volunteers; 100 mg IV once daily x 5 days): 1 (16.7%) n (%)
- TEAE: Anaemia (healthy adult volunteers; 100 mg IV once daily x 5 days): 1 (16.7%) n (%)
- TEAE: Asthenia (healthy adult volunteers; 100 mg IV once daily x 5 days): 1 (16.7%) n (%)
- TEAE: Back pain (healthy adult volunteers; 100 mg IV once daily x 5 days): 0 n (%)
- TEAE: Blood pressure diastolic decreased (healthy adult volunteers; 100 mg IV once daily x 5 days): 0 n (%)
- TEAE: Contusion (healthy adult volunteers; 100 mg IV once daily x 5 days): 0 n (%)
- TEAE: Dizziness (healthy adult volunteers; 100 mg IV once daily x 5 days): 0 n (%)
- TEAE: Dysgeusia (healthy adult volunteers; 100 mg IV once daily x 5 days): 0 n (%)
- TEAE: Erythema (healthy adult volunteers; 100 mg IV once daily x 5 days): 0 n (%)
- TEAE: Fatigue (healthy adult volunteers; 100 mg IV once daily x 5 days): 0 n (%)
- TEAE: Head injury (healthy adult volunteers; 100 mg IV once daily x 5 days): 1 (16.7%) n (%)
- TEAE: Headache (healthy adult volunteers; 100 mg IV once daily x 5 days): 2 (33.3%) n (%)
- TEAE: Nausea (healthy adult volunteers; 100 mg IV once daily x 5 days): 1 (16.7%) n (%)
- TEAE: Pain (healthy adult volunteers; 100 mg IV once daily x 5 days): 1 (16.7%) n (%)
- TEAE: Peripheral swelling (healthy adult volunteers; 100 mg IV once daily x 5 days): 0 n (%)
- TEAE: Phlebitis (healthy adult volunteers; 100 mg IV once daily x 5 days): 1 (16.7%) n (%)
- TEAE: Somnolence (healthy adult volunteers; 100 mg IV once daily x 5 days): 3 n (%) and 3 (50.0%) n (%)
- TEAE: Syncope (healthy adult volunteers; 100 mg IV once daily x 5 days): 1 (16.7%) n (%)
- TEAE: Vision blurred (healthy adult volunteers; 100 mg IV once daily x 5 days): 0 n (%)
- somnolence upon repeat dosing (healthy adult volunteers; 5 days of dosing): no signs of increased somnolence
- pIC50 (hERG channel): 6.21
- adverse effect directly related to IV administration (rats and dogs): sedation
- minimum effective dose in the MCAO model ([1]; IP, mouse): 2 mg/kg
- infarct volume ([1]; administered 15 minutes prior to occlusion): effective in reducing infarct volume
- time-dependent inhibition of CYP3A (CYP3A): does not lead to significant time-dependent inhibition
- AUC(0-inf) [2]: 5690 ng·h/mL
- Cmax [2]: 581 ng/mL
